Experimental data from patent publication US10758534B2 (Vertex Pharmaceuticals Incorporated, priority 2014, dated 2020).

The compounds below were run against T1, F508del (Homo sapiens, UniProt P13569, DEL508-508) (assay: Protocol 2: FRET membrane potential optical assay (VIPR), identification of correction compounds). Details: F508del CFTR modulator activity; compounds of Table 1; read-out: EC30.
T1 construct: expressed in transfected cells
T1 sequence (P13569 with tags, fused parts or gaps DEL508-508): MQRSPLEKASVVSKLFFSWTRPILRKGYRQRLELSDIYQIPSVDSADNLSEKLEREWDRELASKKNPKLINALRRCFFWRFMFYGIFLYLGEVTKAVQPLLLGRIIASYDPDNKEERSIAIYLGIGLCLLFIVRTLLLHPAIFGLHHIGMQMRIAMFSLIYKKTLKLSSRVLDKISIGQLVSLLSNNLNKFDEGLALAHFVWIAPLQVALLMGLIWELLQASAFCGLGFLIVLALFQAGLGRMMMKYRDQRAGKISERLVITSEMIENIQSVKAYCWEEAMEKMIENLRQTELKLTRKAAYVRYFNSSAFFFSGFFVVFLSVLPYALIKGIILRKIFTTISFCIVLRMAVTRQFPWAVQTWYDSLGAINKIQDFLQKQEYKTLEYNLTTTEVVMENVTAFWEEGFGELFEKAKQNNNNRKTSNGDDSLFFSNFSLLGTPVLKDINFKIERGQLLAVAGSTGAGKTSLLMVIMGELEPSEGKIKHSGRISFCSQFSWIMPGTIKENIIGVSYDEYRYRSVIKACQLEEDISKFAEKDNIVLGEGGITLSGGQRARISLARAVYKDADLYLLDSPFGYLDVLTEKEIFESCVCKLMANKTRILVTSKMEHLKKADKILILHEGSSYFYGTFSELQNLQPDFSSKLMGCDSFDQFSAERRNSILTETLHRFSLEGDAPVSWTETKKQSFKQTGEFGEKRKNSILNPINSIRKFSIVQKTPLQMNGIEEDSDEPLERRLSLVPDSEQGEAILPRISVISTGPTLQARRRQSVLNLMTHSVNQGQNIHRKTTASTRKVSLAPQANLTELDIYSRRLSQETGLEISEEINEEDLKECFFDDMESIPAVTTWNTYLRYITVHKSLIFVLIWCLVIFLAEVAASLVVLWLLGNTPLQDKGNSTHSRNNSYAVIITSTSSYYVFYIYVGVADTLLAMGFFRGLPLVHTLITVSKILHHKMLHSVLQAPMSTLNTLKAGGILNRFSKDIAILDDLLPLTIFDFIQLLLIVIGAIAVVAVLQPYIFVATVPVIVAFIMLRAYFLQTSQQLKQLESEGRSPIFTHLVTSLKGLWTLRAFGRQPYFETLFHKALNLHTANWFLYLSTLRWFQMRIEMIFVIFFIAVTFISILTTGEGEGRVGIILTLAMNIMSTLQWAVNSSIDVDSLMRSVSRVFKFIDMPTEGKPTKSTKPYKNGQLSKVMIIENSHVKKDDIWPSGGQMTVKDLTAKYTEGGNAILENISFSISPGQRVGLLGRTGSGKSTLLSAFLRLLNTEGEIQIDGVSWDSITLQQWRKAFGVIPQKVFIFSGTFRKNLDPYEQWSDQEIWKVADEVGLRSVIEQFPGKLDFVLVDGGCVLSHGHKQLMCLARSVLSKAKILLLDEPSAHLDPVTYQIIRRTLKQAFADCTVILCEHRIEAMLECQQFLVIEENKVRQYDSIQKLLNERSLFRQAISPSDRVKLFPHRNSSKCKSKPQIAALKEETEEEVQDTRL
Assay type: cell-based
Outline: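 Correction of the F508del trafficking defect is scored as forskolin (10 μM)/genistein (20 μM)-stimulated Cl^− efflux in NIH3T3 mouse fibroblasts after a 16 hr, 37° C. compound exposure. Depolarization was followed optically using voltage-sensing FRET dyes.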
COc1c(F)cc(-c2ccc(C(=O)NS(=O)(=O)c3cccnc3N)c(N3C[C@@H](C)CC3(C)C)n2)cc1F [Compound 2457, N-[(2-amino-3-pyridyl)sulfonyl]-6-(3,5-difluoro-4-methoxy-phenyl)-2-[(4S)-2,2,4-trimethylpyrrolidin-1-yl]pyridine-3-carboxamide] was tested, and the EC30 was < 3000 nM.
In the case of CC1CN(c2ncccc2C(=O)NS(=O)(=O)c2cccc(Oc3ccc(OC(C)(C)C)cc3)n2)C(C)(C)C1 (centres unmarked) [Compound 2739], the EC30 is reported as < 3000 nM.
With C[C@@H]1CN(c2nc(C(C)(C)C)c(C3=CCN(C(=O)CC4CCCCC4)CC3)cc2C(=O)NS(=O)(=O)c2cccc(N)n2)C(C)(C)C1 [Compound 2596, N-[(6-amino-2-pyridyl)sulfonyl]-6-tert-butyl-5-[1-(2-cyclohexylacetyl)-3,6-dihydro-2H-pyridin-4-yl]-2-[(4S)-2,2,4-trimethylpyrrolidin-1-yl]pyridine-3-carboxamide] the EC30 was < 3000 nM.
COc1cccc(-c2ccc(C(=O)NS(=O)(=O)c3cccnc3N)c(N3C[C@@H](C)CC3(C)C)n2)c1OC [Compound 2436, N-[(2-amino-3-pyridyl)sulfonyl]-6-(2,3-dimethoxyphenyl)-2-[(4S)-2,2,4-trimethylpyrrolidin-1-yl]pyridine-3-carboxamide] was tested, and the EC30 was < 3000 nM.
COc1ccc(-c2ccc(C(=O)NS(=O)(=O)c3ccc[nH]c3=O)c(N3C[C@@H](C)CC3(C)C)n2)c(C)c1 [Compound 2469, 6-(4-methoxy-2-methyl-phenyl)-N-[(2-oxo-1H-pyridin-3-yl)sulfonyl]-2-[(4S)-2,2,4-trimethylpyrrolidin-1-yl]pyridine-3-carboxamide] showed an EC30 of 3000 to 10000 nM.
With C[C@@H]1CN(c2nc(CCC3CC3)ccc2C(=O)NS(=O)(=O)c2cccnc2N)C(C)(C)C1 [Compound 2553, N-[(2-amino-3-pyridyl)sulfonyl]-6-(2-cyclopropylethyl)-2-[(4S)-2,2,4-trimethylpyrrolidin-1-yl]pyridine-3-carboxamide] the EC30 was < 3000 nM.
CC(C)Oc1ccc(-c2ccc(C(=O)NS(=O)(=O)N3CC[C@H](N)C3)c(N3C[C@@H](C)CC3(C)C)n2)cc1 [Compound 2120, N-[(3S)-3-aminopyrrolidin-1-yl]sulfonyl-6-(4-isopropoxyphenyl)-2-[(4S)-2,2,4-trimethylpyrrolidin-1-yl]pyridine-3-carboxamide] was tested, and the EC30 was < 3000 nM.
For CC1CN(c2ncccc2C(=O)NS(=O)(=O)c2cccc(Oc3cccc4[nH]ccc34)n2)C(C)(C)C1 (centres unmarked) [Compound 2338, N—[[6-(1H-indol-4-yloxy)-2-pyridyl]sulfonyl]-2-(2,2,4-trimethylpyrrolidin-1-yl)pyridine-3-carboxamide], the EC30 was < 3000 nM.
With CC(C)COc1cc(F)cc(-c2ccc(C(=O)NS(=O)(=O)c3cccc(N)n3)c(N3CCC(C)C(C)C3)n2)c1 (single isomer, unassigned) [Compound 2062, N-[(6-amino-2-pyridyl)sulfonyl]-2-(3,4-dimethyl-1-piperidyl)-6-(3-fluoro-5-isobutoxy-phenyl)pyridine-3-carboxamide] the EC30 was < 3000 nM.
For CC1CN(c2ncccc2C(=O)NS(=O)(=O)c2cccc(NC3CCCC3)n2)C(C)(C)C1 (centres unmarked) [Compound 2053, N—[[6-(cyclopentylamino)-2-pyridyl]sulfonyl]-2-(2,2,4-trimethylpyrrolidin-1-yl)pyridine-3-carboxamide], the EC30 was < 3000 nM.
In the case of CC1CN(c2ncccc2C(=O)NS(=O)(=O)c2cccc(OCc3cccc(Cl)c3)n2)C(C)(C)C1 (centres unmarked) [Compound 2264, N—[[6-[(3-chlorophenyl)methoxy]-2-pyridyl]sulfonyl]-2-(2,2,4-trimethylpyrrolidin-1-yl)pyridine-3-carboxamide], the EC30 is reported as < 3000 nM.
In the case of CC1CN(c2ncccc2C(=O)NS(=O)(=O)c2cccc(OC3CCOc4ccccc43)n2)C(C)(C)C1 (centres unmarked) [Compound 2737], the EC30 is reported as < 3000 nM.
In the case of CC1CN(c2ncccc2C(=O)NS(=O)(=O)c2cccc(Nc3ccc(F)c(F)c3)n2)C(C)(C)C1 (centres unmarked) [Compound 2341, N—[[6-(3,4-difluoroanilino)-2-pyridyl]sulfonyl]-2-(2,2,4-trimethylpyrrolidin-1-yl)pyridine-3-carboxamide], the EC30 is reported as < 3000 nM.
In the case of CC(C)COc1cc(F)cc(-c2ccc(C(=O)NS(=O)(=O)N3C[C@H]4C[C@@H]3CO4)c(N3C[C@@H](C)CC3(C)C)n2)c1 [Compound 2347, 6-(3-fluoro-5-isobutoxy-phenyl)-N—[[(1R,4R)-2-oxa-5-azabicyclo[2.2.1]heptan-5-yl]sulfonyl]-2-[(4S)-2,2,4-trimethylpyrrolidin-1-yl]pyridine-3-carboxamide], the EC30 is reported as < 3000 nM.

Same assay, conditions: Table 3; compounds of Table 1 as modulators of CFTR activity; protocol not stated
With Cc1cc(C)c(CN2Cc3ccccc3C2C(=O)NS(=O)(=O)c2cccc(=O)[nH]2)c(C)c1 (centres unmarked) [Compound 319, N-[(6-oxo-1H-pyridin-2-yl)sulfonyl]-2-[(2,4,6-trimethylphenyl)methyl]isoindoline-1-carboxamide] the EC30 was “++ (“++” means between 3 uM and 10 uM)”.
CC(C)Oc1ccc(-c2ccc(C(=O)NS(=O)(=O)c3cccc(N)n3)c(N3CCC[C@@H](C)C3)n2)cn1 [Compound 757, N-[(6-amino-2-pyridyl)sulfonyl]-6-(6-isopropoxy-3-pyridyl)-2-[(3R)-3-methyl-1-piperidyl]pyridine-3-carboxamide] was tested, and the EC30 was “+++ (“+++” means <3 uM)”.
In the case of Cc1cc(C)c(Oc2nc(C(F)(F)F)ccc2C(=O)NS(=O)(=O)c2ccccc2)c(C)c1 [Compound 244, N-(benzenesulfonyl)-6-(trifluoromethyl)-2-(2,4,6-trimethylphenoxy)pyridine-3-carboxamide], the EC30 is reported as “+++ (“+++” means <3 uM)”.
In the case of CC(C)(C)c1ccc(C(=O)NS(=O)(=O)c2ccccc2)c(OCc2ccccc2)n1 [Compound 130, N-(benzenesulfonyl)-2-benzyloxy-6-tert-butyl-pyridine-3-carboxamide], the EC30 is reported as “+++ (“+++” means <3 uM)”.
For COc1cccc2c1cc(C(=O)NS(=O)(=O)c1ccccc1)n2Cc1c(C)cc(C)cc1C [Compound 348, N-(benzenesulfonyl)-4-methoxy-1-[(2,4,6-trimethylphenyl)methyl]indole-2-carboxamide], the EC30 was “+++ (“+++” means <3 uM)”.
In the case of Cc1cc(C)c(Oc2nc(-c3ccc(C)nc3)ccc2C(=O)NS(=O)(=O)c2cccc(N)n2)c(C)c1 [Compound 513, N-[(6-amino-2-pyridyl)sulfonyl]-6-(6-methyl-3-pyridyl)-2-(2,4,6-trimethylphenoxy)pyridine-3-carboxamide], the EC30 is reported as “++ (“++” means between 3 uM and 10 uM)”.
In the case of Cc1cc(C)c(CN2Cc3ccccc3C2C(=O)NS(=O)(=O)c2ccccn2)c(C)c1 (centres unmarked) [Compound 48, N-(2-pyridylsulfonyl)-2-[(2,4,6-trimethylphenyl)methyl]isoindoline-1-carboxamide], the EC30 is reported as “++ (“++” means between 3 uM and 10 uM)”.
With CC(C)Oc1ccc(-c2ccc(C(=O)NS(=O)(=O)c3cccc(N)n3)c(N3CCC(Cc4ccccc4)C3)n2)cn1 (centres unmarked) [Compound 647, N-[(6-amino-2-pyridyl)sulfonyl]-2-(3-benzylpyrrolidin-1-yl)-6-(6-isopropoxy-3-pyridyl)pyridine-3-carboxamide] the EC30 was “+++ (“+++” means <3 uM)”.
With Cc1cc(C)c(CN2Cc3ccccc3C2C(=O)NS(=O)(=O)c2cccc(N)c2)c(C)c1 (centres unmarked) [Compound 90, N-(3-aminophenyl)sulfonyl-2-[(2,4,6-trimethylphenyl)methyl]isoindoline-1-carboxamide] the EC30 was “+++ (“+++” means <3 uM)”.
